Laboratory results reported in US6197225A, “Chromene compound” (Tokuyama Corporation, priority 1997, dated 2001).

How the values were obtained:
[1] = Photochromic properties of cast polymer (2 mm thick) under xenon lamp irradiation for 120 seconds; format: physicochemical; details: for λ max: chromene composition, or other chromene C1-C4, 0.04% by weight in polymer; for Initial color ε(0): chromene composition, or other chromene C1-C4, non-irradiated; for Color-developing sensitivity: saturated color density/xenon irradiation time
Experimental: 0.04% by weight of the chromene compound obtained in Example 1 was added to 70 parts of 4G, 15 parts of 3G, 10 parts of GMA, 5 parts of HEMA and 1 part of perbutyl ND, and was mixed together to a sufficient degree. The mixture solution was poured into a mold constituted by a glass plate and a gasket of an ethylene/vinyl acetate copolymer, and was cast-polymerized. By using an air furnace, the polymerization was conducted in a manner that the temperature was gradually raised from 30° C. to 90° C. over a period of 18 hours, and was held at 90° C. for 2 hours. After the polymerization, the polymer was taken out from the glass mold.
By using a xenon lamp, L-2480 (300 W) SHL-100, manufactured by Hamamatsu Photonics Co., the obtained polymer (2 mm thick) was irradiated with a beam of an intensity of 365 nm=2.4 mW/cm^2 and 245 nm=24 μW/cm^2 on the surface of the polymer for 120 seconds through an aero-mass filter (manufactured by Corning Co.) at 20° C.±1° C. to develop color and to measure the photochromic properties which were expressed in the following manner.
1 Maximum absorption wavelength (λmax): λmax of the polymer after it has developed color was found by using a spectrophotometer (instantaneous multi-channel photo-detector, MCPD1000) manufactured by Otsuka Denshi Kogyo Co.
2 Initial color ( ε(0)): Absorbency of the polymer in a non-irradiated state at a wavelength same as the maximum absorption wavelength of when it is irradiated with light.
3 Color density (-)=ε(120)-ε(0). ε(120): Absorbency of the polymer at a maximum absorption wavelength after it was irradiated for 120 seconds under the above-mentioned conditions.
4 Color-developing sensitivity (-/min.)=Saturated color density/xenon irradiation time.
Rate of increase in the color density per a unit time until the color density is saturated.
5 Color fading rate [t1/2 (min.)]=time required until the absorbency of the polymer drops down to one-half of [ε(120)-ε(0)] after irradiated for 120 seconds.
(§1) Photochromic polymers were prepared in the same manner as in Example 42 but using the chromene compounds obtained in Examples 2 to 41, and their maximum absorption wavelengths, color densities, fading rates, changes in the coloring degrees and durabilitys were measured.
(§2) For the purpose of comparison, furthermore, the compounds represented by the following formulas (a), (b), (c), (d), (e) and (f) were measured for their maximum absorption wavelengths, color densities, fading rates, changes in the coloring degrees and durabilitys.
(§3) The procedure was carried out in the same manner as in Example 42 but using 100 parts of AC1 and 133 parts of BC1, the sum of the amounts of AC1 and BC1 being 0.04% by weight. The obtained photochromic polymer was measured for its maximum absorption wavelength, initial color, color density, color-developing sensitivity, fading rate, durability and change in the coloring degree.
(§4) The procedure was carried out in the same manner as in Example 83 but using the known chromene compounds shown in Table 6 instead of the chromene compound used in Example 83. […]

[2] = Aging promotion testing: sunlight 30 min / fading one hour cycles, 10 days (durability, coloring degree); format: physicochemical
Experimental: In order to promote the aging, furthermore, the following testing was conducted. That is, the obtained photochromic polymer was irradiated with sunlight for 30 minutes to develop color, and its color was permitted to fade for one hour in the light of a fluorescent lamp. This cycle was repeated three times a day for a total of 10 days.
The photochromic properties before and after aged were evaluated by evaluating the color densities before and after aged. The initial color density (T0) and the color density (T30) ten days after the aging promotion testing were measured, and the durability was expressed as described below.
Furthermore, the coloring degrees of before developing color were measured before and after aged by using a color difference meter (SM-4) manufactured by Suga Shikenki Co.
7 Coloring degree before being aged=YI(0).
8 Change in the coloring degree (ΔYI)=YI(10)-YI(0)
YI(10): coloring degree after aged
as §1, §2, §3, §4
The obtained polymer (2 mm thick) was caused to develop color outdoors, and tones of the developed color were observed by eyes 30 seconds and 15 minutes after it was brought to the outdoors, and uniformity in the step of developing color was evaluated. […] Furthermore, the aging promoting testing was conducted in the same manner as in Example 42 to find a coloring degree (YI(0)) before aged and a change in the coloring degree (ΔY).

[3] = single chromene compound 0.04% by weight in polymer, 20° C., Table 5
[4] = single chromene compound 0.04% by weight in polymer, 120 seconds, 20° C., Table 5
[5] = YI(10)-YI(0), single chromene compound in polymer, 10 days aging, Table 5
[6] = single chromene compound in polymer, 10 days aging, Table 5
[7] = chromene composition, or other chromene C1-C4, 120 seconds, Table 6
[8] = chromene composition, or other chromene C1-C4, Table 6
[9] = chromene composition, or other chromene C1-C4, 10 days aging, Table 6

| SMILES | Fading rate t1/2 [1, 3] [min] | Maximum absorption wavelength λmax [1, 3] [nm] | Color density ε(120)-ε(0) [1, 4] | Change in the coloring degree ΔYI [2, 5] | Light resistance (durability) [2, 6] [%] | λ max ([1]; Table 6) [nm] | Color density ε(120)-ε(0) [1, 7] | Initial color ε(0) ([1]; Table 6) | Fading rate t1/2 [1, 8] [min] | Color-developing sensitivity ([1]; Table 6) | Change in the coloring degree ΔYI [2, 9] | Durability [2, 9] [%] |
| --- | --- | --- | --- | --- | --- | --- | --- | --- | --- | --- | --- | --- |
| CCOC(=O)c1c2c(c3ccccc3c1C)OC1(C=C2)C2CCCC1CCC2 (stereo not shown) [f, reference compound] | 4.1 | 446 | 0.6 | 6.0 | 96 |  |  |  |  |  |  |  |
| CC(C)(C)c1cc2ccccc2c2c1C=CC1(O2)C2CCCC1CCC2 (stereo not shown) [Compound 2] | 1.2 | 443 | 0.5 | 1.5 | 96 |  |  |  |  |  |  |  |
| CC(=O)Oc1ccc2c3c(c(C(C)C)cc2c1)C=CC(c1ccc(C)cc1)(c1ccc(C)cc1)O3 [Compound 10] | 3.2 | 465 | 0.6 | 1.5 | 93 |  |  |  |  |  |  |  |
| CC(C)c1cc2ccccc2c2c1C=CC(c1ccccc1)(c1ccc(OC(F)(F)F)cc1)O2 (stereo not shown) [Compound 16] | 5.2 | 470 | 0.9 | 1.2 | 99 |  |  |  |  |  |  |  |
| CCC(C)c1cc2ccccc2c2c1C=CC(c1ccc(OC)cc1)(c1ccc(OC)c(C#N)c1)O2 (stereo not shown) [Compound 4] | 2.4 | 470 | 0.7 | 5.0 | 80 |  |  |  |  |  |  |  |
| COc1ccc(C2(c3ccc(OC(F)(F)F)cc3)C=Cc3c(C(C)C)cc4ccccc4c3O2)cc1 (stereo not shown) [Compound 15] | 4.8 | 486 | 0.9 | 1.2 | 96 |  |  |  |  |  |  |  |
| CC(C)c1cc2ccccc2c2c1C=CC(c1ccccc1)(c1ccccc1)O2 [Compound 12] | 6.8 | 476 | 0.9 | 1.0 | 99 |  |  |  |  |  |  |  |
| CC(C)(C)c1cc2ccccc2c2c1C=CC(c1ccccc1)(c1ccc(OC(F)(F)F)cc1)O2 (stereo not shown) [Compound 17] | 3.2 | 452 | 0.7 | 0.7 | 98 |  |  |  |  |  |  |  |
| CC(C)c1cc2ccccc2c2c1C=CC1(O2)C2CC3CC(C2)CC1C3 (stereo not shown) [Compound 25] | 2.0 | 454 | 0.7 | 2.2 | 92 |  |  |  |  |  |  |  |
| C1=CC(c2ccccc2)(c2ccccc2)Oc2ccc3ccccc3c21 [Compound C4, 3,3-Diphenyl-3H-benzo(f)chromene, reference compound] |  |  |  |  |  | 432 | 0.5 | 0.01 | 1.0 | 0.2 -/min. | 5.0 | 95 |
| CC(C)c1cc2cc(O)ccc2c2c1C=CC(c1cccs1)(c1cccs1)O2 [Compound 9] | 2.2 | 500 | 0.6 | 2.2 | 94 |  |  |  |  |  |  |  |
| CCOC(=O)C1=CC(c2ccccc2)(c2ccccc2)Oc2c1cc(C)c1ccccc21 [b, reference compound] | 14 | 488 | 1.2 | 6.5 | 80 |  |  |  |  |  |  |  |
| COc1ccc(C2(c3ccc(OC)cc3)C=Cc3ccc4ccccc4c3O2)cc1 [a, reference compound] | > 30 | 492 | 1.3 | 2.5 | 97 |  |  |  |  |  |  |  |
| CCOc1ccc(C2(c3ccc(OCC)cc3)C=Cc3c(C)cc4ccccc4c3O2)cc1 [Compound 29] | 5.8 | 504 | 1.2 | 2.4 | 98 |  |  |  |  |  |  |  |
| C1=CC2(CC3CCC2C3)Oc2c1ccc1ccccc21 (stereo not shown) [Compound C1, Spiro(norbornane-2,2'-(2H)benzo(h)chromene), reference compound] |  |  |  |  |  | 450 | 1.0 | 0.01 | > 10 | 0.2 -/min. | 2.0 | 90 |
| CCOC(=O)c1c2c(c3ccccc3c1C)OC(c1ccccc1)(c1ccccc1)C=C2 [Compound C2, 5-Ethoxycarbonyl-6-methyl-2,2-diphenyl-2H-benzo(h) chromene, reference compound] |  |  |  |  |  | 458 | 0.9 | 0.02 | 4.0 | 0.2 -/min. | 4.0 | 95 |
| CC(C)(C)c1cc2ccccc2c2c1C=CC1(O2)C2(Cl)CCCC1(Cl)CCC2 (stereo not shown) [Compound 22] | 1.4 | 444 | 0.5 | 3.0 | 80 |  |  |  |  |  |  |  |
| CCC(C)c1cc2ccccc2c2c1C=CC1(O2)C2CCCC1CCC2 (stereo not shown) [Compound 23] | 1.0 | 450 | 0.5 | 2.0 | 92 |  |  |  |  |  |  |  |
| COc1ccc(C2(c3ccc(OC)cc3)C=Cc3c(C)cc4ccccc4c3O2)cc1 [Compound 26] | 6.0 | 504 | 1.2 | 2.3 | 99 |  |  |  |  |  |  |  |
| COc1ccc(C2(c3ccc(OC)cc3)C=Cc3c(C(C)C)cc4ccccc4c3O2)cc1 [Compound 13] | 3.3 | 500 | 0.8 | 1.5 | 97 |  |  |  |  |  |  |  |
| CC(C)(C)c1cc2ccccc2c2c1C=CC1(CC3CCC1C3)O2 (stereo not shown) [Compound 18] | 1.3 | 440 | 0.4 | 1.8 | 95 |  |  |  |  |  |  |  |
| CC(C)c1cc2ccccc2c2c1C=CC(c1ccccc1)(c1ccc3ccccc3c1)O2 (stereo not shown) [Compound 7] | 3.5 | 468 | 0.8 | 1.7 | 96 |  |  |  |  |  |  |  |
| CCCc1cc2ccccc2c2c1C=CC(c1ccc(OC)cc1)(c1ccc(OC)cc1)O2 [Compound 35] | 4.5 | 498 | 0.9 | 2.3 | 98 |  |  |  |  |  |  |  |
